Measured values reported in the NIST ThermoML archive (doi:10.1007/s10765-010-0766-0).
Where “and” joins values, the source holds several entries; their conditions need not be identical. Equal values may be shown once. ± gives the expanded uncertainty stated by the source.

Test: molar heat capacity at constant volume; wn = mass fraction of the nth substance listed
Conditions: Liquid, Vacuum adiabatic calorimetry, w2 = 0.4981

FC(F)C(F)(F)F [pentafluoroethane] + FCF
Conditions	molar heat capacity at constant volume
277.15 K, 11982 kPa	66.66 ± 3 J/K/mol
278.15 K, 12826 kPa	66.08 ± 3 J/K/mol
279.15 K, 13669 kPa	66.51 ± 3 J/K/mol
280.15 K, 14512 kPa	66.73 ± 3 J/K/mol
281.15 K, 15355 kPa	66.15 ± 3 J/K/mol
282.15 K, 16198 kPa	66.44 ± 3 J/K/mol
283.15 K, 17040 kPa	65.86 ± 3 J/K/mol
284.15 K, 17881 kPa	67.75 ± 3.1 J/K/mol
285.15 K, 18722 kPa	66.22 ± 3 J/K/mol
286.15 K, 19563 kPa	66.08 ± 3 J/K/mol
287.15 K, 20403 kPa	66.15 ± 3 J/K/mol
288.15 K, 21239 kPa	65.93 ± 3 J/K/mol
289.15 K, 22077 kPa	67.1 ± 3.1 J/K/mol
291.15 K, 23750 kPa	66.88 ± 3 J/K/mol
292.15 K, 24585 kPa	66.81 ± 3 J/K/mol
293.15 K, 25420 kPa	65.64 ± 3 J/K/mol
294.15 K, 26254 kPa	66.37 ± 3 J/K/mol
295.15 K, 27085 kPa	65.28 ± 2.9 J/K/mol
296.15 K, 27917 kPa	67.31 ± 3.1 J/K/mol
297.15 K, 8118 kPa	66.88 ± 3 J/K/mol
297.15 K, 28747 kPa	66.22 ± 3 J/K/mol
298.15 K, 29575 kPa	66.01 ± 3 J/K/mol
299.15 K, 9422 kPa	68.48 ± 3.1 J/K/mol
300.15 K, 10072 kPa	69.35 ± 3.1 J/K/mol
300.15 K, 10089 kPa	66.22 ± 3 J/K/mol
301.15 K, 10723 kPa	68.99 ± 3.1 J/K/mol
301.15 K, 10737 kPa	69.93 ± 3.1 J/K/mol
302.15 K, 11374 kPa	69.2 ± 3.1 J/K/mol
302.15 K, 11385 kPa	67.31 ± 3.1 J/K/mol
303.15 K, 12024 kPa	69.2 ± 3.1 J/K/mol
303.15 K, 12032 kPa	68.7 ± 3.1 J/K/mol
304.15 K, 12672 kPa	68.91 ± 3.1 J/K/mol
304.15 K, 12680 kPa	68.77 ± 3.1 J/K/mol
305.15 K, 13320 kPa	69.57 ± 3.1 J/K/mol
305.15 K, 13327 kPa	69.06 ± 3.1 J/K/mol
306.15 K, 13970 kPa	69.06 ± 3.1 J/K/mol
306.15 K, 13973 kPa	68.99 ± 3.1 J/K/mol
307.15 K, 14620 kPa	68.62 ± 3.1 J/K/mol and 68.33 ± 3.1 J/K/mol
308.15 K, 15268 kPa	69.71 ± 3.1 J/K/mol and 68.11 ± 3.1 J/K/mol
309.15 K, 15915 kPa	68.62 ± 3.1 J/K/mol
309.15 K, 15917 kPa	69.57 ± 3.1 J/K/mol
310.15 K, 16562 kPa	68.55 ± 3.1 J/K/mol
310.15 K, 16564 kPa	68.84 ± 3.1 J/K/mol
311.15 K, 17208 kPa	69.13 ± 3.1 J/K/mol
311.15 K, 17212 kPa	68.99 ± 3.1 J/K/mol
312.15 K, 17853 kPa	68.91 ± 3.1 J/K/mol
312.15 K, 17859 kPa	68.41 ± 3.1 J/K/mol
313.15 K, 18499 kPa	66.81 ± 3 J/K/mol
313.15 K, 18506 kPa	68.77 ± 3.1 J/K/mol
314.15 K, 19144 kPa	68.48 ± 3.1 J/K/mol
314.15 K, 19153 kPa	69.13 ± 3.1 J/K/mol
315.15 K, 19788 kPa	68.41 ± 3.1 J/K/mol
315.15 K, 19798 kPa	69.35 ± 3.1 J/K/mol
316.15 K, 20432 kPa	68.55 ± 3.1 J/K/mol
316.15 K, 20443 kPa	68.41 ± 3.1 J/K/mol
317.15 K, 21075 kPa	68.48 ± 3.1 J/K/mol
317.15 K, 21088 kPa	68.62 ± 3.1 J/K/mol
318.15 K, 21719 kPa	67.75 ± 3.1 J/K/mol
318.15 K, 21733 kPa	68.55 ± 3.1 J/K/mol
319.15 K, 22362 kPa	68.33 ± 3.1 J/K/mol
319.15 K, 22377 kPa	67.9 ± 3.1 J/K/mol
320.15 K, 23005 kPa	69.71 ± 3.1 J/K/mol
320.15 K, 23021 kPa	69.2 ± 3.1 J/K/mol
321.15 K, 23648 kPa	67.1 ± 3.1 J/K/mol
321.15 K, 23665 kPa	68.33 ± 3.1 J/K/mol
322.15 K, 24289 kPa	70.15 ± 3.2 J/K/mol
322.15 K, 24307 kPa	68.41 ± 3.1 J/K/mol
323.15 K, 24930 kPa	68.41 ± 3.1 J/K/mol
323.15 K, 24949 kPa	69.71 ± 3.1 J/K/mol
324.15 K, 25571 kPa	68.77 ± 3.1 J/K/mol
324.15 K, 25590 kPa	68.04 ± 3.1 J/K/mol
325.15 K, 26210 kPa	67.61 ± 3.1 J/K/mol
325.15 K, 26231 kPa	68.41 ± 3.1 J/K/mol
326.15 K, 26850 kPa	68.62 ± 3.1 J/K/mol
326.15 K, 26871 kPa	68.11 ± 3.1 J/K/mol
327.15 K, 27488 kPa	68.55 ± 3.1 J/K/mol
327.15 K, 27511 kPa	67.75 ± 3.1 J/K/mol
328.15 K, 28127 kPa	68.62 ± 3.1 J/K/mol
328.15 K, 28150 kPa	68.19 ± 3.1 J/K/mol
329.15 K, 5865 kPa	70.22 ± 3.2 J/K/mol
329.15 K, 5904 kPa	72.11 ± 3.3 J/K/mol
329.15 K, 28764 kPa	69.13 ± 3.1 J/K/mol
329.15 K, 28790 kPa	68.62 ± 3.1 J/K/mol
330.15 K, 6231 kPa	73.78 ± 3.5 J/K/mol
330.15 K, 6255 kPa	72.33 ± 3.3 J/K/mol
330.15 K, 6269 kPa	69.13 ± 3.3 J/K/mol
330.15 K, 29402 kPa	68.04 ± 3.1 J/K/mol
330.15 K, 29426 kPa	67.97 ± 3.1 J/K/mol
331.15 K, 6598 kPa	70.66 ± 3.2 J/K/mol
331.15 K, 6620 kPa	71.09 ± 3.2 J/K/mol
331.15 K, 6635 kPa	70.15 ± 3.2 J/K/mol
331.15 K, 30065 kPa	69.93 ± 3.1 J/K/mol
332.15 K, 6965 kPa	73.2 ± 3.3 J/K/mol
332.15 K, 6987 kPa	73.28 ± 3.3 J/K/mol
332.15 K, 7002 kPa	71.46 ± 3.3 J/K/mol
333.15 K, 7333 kPa	71.39 ± 3.3 J/K/mol
333.15 K, 7355 kPa	71.82 ± 3.3 J/K/mol
333.15 K, 7370 kPa	69.13 ± 3.2 J/K/mol
334.15 K, 7700 kPa	71.17 ± 3.3 J/K/mol
334.15 K, 7723 kPa	71.02 ± 3.2 J/K/mol
334.15 K, 7736 kPa	71.24 ± 3.3 J/K/mol
335.15 K, 8069 kPa	71.02 ± 3.2 J/K/mol
335.15 K, 8090 kPa	72.62 ± 3.3 J/K/mol
335.15 K, 8104 kPa	70.51 ± 3.2 J/K/mol
336.15 K, 8438 kPa	70.73 ± 3.3 J/K/mol
336.15 K, 8457 kPa	69.5 ± 3.1 J/K/mol
336.15 K, 8472 kPa	70.88 ± 3.3 J/K/mol
337.15 K, 8807 kPa	71.02 ± 3.4 J/K/mol
337.15 K, 8826 kPa	71.53 ± 3.2 J/K/mol
337.15 K, 8840 kPa	69.42 ± 3.3 J/K/mol
338.15 K, 9176 kPa	71.02 ± 3.2 J/K/mol
338.15 K, 9194 kPa	71.39 ± 3.2 J/K/mol
338.15 K, 9209 kPa	69.42 ± 3.1 J/K/mol
339.15 K, 9546 kPa	70.66 ± 3.6 J/K/mol
339.15 K, 9563 kPa	71.39 ± 3.2 J/K/mol
339.15 K, 9579 kPa	69.57 ± 3.5 J/K/mol
340.15 K, 9916 kPa	70.3 ± 3.2 J/K/mol
340.15 K, 9933 kPa	70.37 ± 3.2 J/K/mol
340.15 K, 9949 kPa	68.91 ± 3.1 J/K/mol
341.15 K, 10286 kPa	70.44 ± 3.2 J/K/mol
341.15 K, 10302 kPa	70.95 ± 3.2 J/K/mol
341.15 K, 10320 kPa	70.15 ± 3.3 J/K/mol
342.15 K, 10657 kPa	69.79 ± 3.5 J/K/mol
342.15 K, 10672 kPa	70.59 ± 3.2 J/K/mol
342.15 K, 10691 kPa	68.55 ± 3.4 J/K/mol
343.15 K, 11028 kPa	70.15 ± 3.2 J/K/mol
343.15 K, 11043 kPa	71.46 ± 3.2 J/K/mol
343.15 K, 11061 kPa	70.08 ± 3.2 J/K/mol
344.15 K, 11399 kPa	70.08 ± 3.3 J/K/mol
344.15 K, 11413 kPa	70.59 ± 3.2 J/K/mol
344.15 K, 11431 kPa	68.99 ± 3.2 J/K/mol
345.15 K, 6187 kPa	86.29 ± 3.9 J/K/mol
345.15 K, 11770 kPa	69.79 ± 3.1 J/K/mol
345.15 K, 11784 kPa	71.39 ± 3.2 J/K/mol
345.15 K, 11802 kPa	69.35 ± 3.1 J/K/mol
346.15 K, 6420 kPa	87.01 ± 3.9 J/K/mol
346.15 K, 12143 kPa	70.3 ± 3.2 J/K/mol
346.15 K, 12155 kPa	70.37 ± 3.2 J/K/mol
346.15 K, 12174 kPa	68.62 ± 3.1 J/K/mol
347.15 K, 6655 kPa	85.49 ± 3.9 J/K/mol
347.15 K, 6657 kPa	86.07 ± 3.9 J/K/mol
347.15 K, 12515 kPa	70.44 ± 3.2 J/K/mol
347.15 K, 12527 kPa	72.33 ± 3.3 J/K/mol
347.15 K, 12547 kPa	69.35 ± 3.1 J/K/mol
348.15 K, 6890 kPa	85.63 ± 3.9 J/K/mol
348.15 K, 6893 kPa	86.51 ± 3.9 J/K/mol
348.15 K, 12887 kPa	69.06 ± 3.1 J/K/mol
348.15 K, 12899 kPa	70.15 ± 3.2 J/K/mol
348.15 K, 12919 kPa	68.84 ± 3.1 J/K/mol
349.15 K, 7127 kPa	83.74 ± 3.8 J/K/mol
349.15 K, 7130 kPa	86.51 ± 3.9 J/K/mol
349.15 K, 13259 kPa	69.86 ± 3.2 J/K/mol
349.15 K, 13271 kPa	70.95 ± 3.2 J/K/mol
349.15 K, 13292 kPa	69.42 ± 3.2 J/K/mol
350.15 K, 7364 kPa	85.2 ± 3.9 J/K/mol
350.15 K, 7368 kPa	84.47 ± 3.8 J/K/mol
350.15 K, 13631 kPa	69.42 ± 3.1 J/K/mol
350.15 K, 13643 kPa	70.15 ± 3.2 J/K/mol
350.15 K, 13664 kPa	69.28 ± 3.1 J/K/mol
351.15 K, 7602 kPa	84.11 ± 3.8 J/K/mol
351.15 K, 7606 kPa	85.42 ± 3.9 J/K/mol
351.15 K, 14004 kPa	70.08 ± 3.2 J/K/mol
351.15 K, 14015 kPa	70.73 ± 3.2 J/K/mol
351.15 K, 14036 kPa	68.48 ± 3.1 J/K/mol
352.15 K, 7841 kPa	83.23 ± 3.8 J/K/mol
352.15 K, 7845 kPa	84.11 ± 3.8 J/K/mol
352.15 K, 14377 kPa	69.06 ± 3.1 J/K/mol
352.15 K, 14387 kPa	70.22 ± 3.2 J/K/mol
352.15 K, 14409 kPa	68.84 ± 3.1 J/K/mol
353.15 K, 8080 kPa	82.36 ± 3.7 J/K/mol
353.15 K, 8084 kPa	83.16 ± 3.8 J/K/mol
353.15 K, 14750 kPa	70.08 ± 3.2 J/K/mol
353.15 K, 14761 kPa	71.46 ± 3.2 J/K/mol
353.15 K, 14783 kPa	68.41 ± 3.1 J/K/mol
354.15 K, 8320 kPa	83.38 ± 3.8 J/K/mol
354.15 K, 8324 kPa	83.89 ± 3.8 J/K/mol
354.15 K, 15123 kPa	69.5 ± 3.1 J/K/mol
354.15 K, 15133 kPa	70.59 ± 3.2 J/K/mol
354.15 K, 15157 kPa	68.48 ± 3.1 J/K/mol
355.15 K, 8560 kPa	82.73 ± 3.7 J/K/mol
355.15 K, 8565 kPa	84.62 ± 3.8 J/K/mol
355.15 K, 15496 kPa	69.64 ± 3.1 J/K/mol
355.15 K, 15507 kPa	70.59 ± 3.2 J/K/mol
355.15 K, 15531 kPa	69.64 ± 3.1 J/K/mol
356.15 K, 8801 kPa	83.45 ± 3.8 J/K/mol
356.15 K, 8806 kPa	82.87 ± 3.7 J/K/mol
356.15 K, 15869 kPa	70.59 ± 3.2 J/K/mol
356.15 K, 15880 kPa	69.93 ± 3.1 J/K/mol
356.15 K, 15904 kPa	68.99 ± 3.3 J/K/mol
